Patent US8188098B2, “GPR119 receptor agonists” (Hoffmann-La Roche Inc., priority 2008, dated 2012)

The molecules below were run against T1, GPR119 receptor (Mesocricetus auratus, UniProt A0A1U8CD06) (assay: cAMP assay in HIT-T15 hamster pancreatic islet cells (functional agonist activity)). Settings: HIT-T15 cells endogenously expressing GPR119; 30 min at 25° C.; intracellular cAMP.
T1 construct: which endogenously express the GPR119 receptor; host or cells: HIT-T15 hamster pancreatic islet cells
T1 sequence (A0A1U8CD06 1-334): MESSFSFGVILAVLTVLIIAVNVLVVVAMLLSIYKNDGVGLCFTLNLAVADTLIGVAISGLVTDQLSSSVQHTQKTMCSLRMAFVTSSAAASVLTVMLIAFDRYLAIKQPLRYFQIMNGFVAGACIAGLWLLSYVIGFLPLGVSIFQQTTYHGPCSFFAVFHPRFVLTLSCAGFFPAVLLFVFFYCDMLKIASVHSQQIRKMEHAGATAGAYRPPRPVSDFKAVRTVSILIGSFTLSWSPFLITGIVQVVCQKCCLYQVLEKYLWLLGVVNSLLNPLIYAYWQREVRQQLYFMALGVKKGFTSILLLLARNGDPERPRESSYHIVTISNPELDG
Type: cell-based
Procedure, shortened: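 HIT-T15 cells (endogenous GPR119), 9000/well, exposed to agonist 30 min at 25° C with 0.5 mM IBMX and 0.5 mg/ml BSA. Lysate cAMP measured by chemiluminescent competitive immunoassay; EC50 from curve fit.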
`CC(C)OC(=O)N1CCC(n2ncc3c(Oc4ccc(S(C)(=O)=O)cc4)ncnc32)CC1` [Example 21, 4-[4-(4-Methanesulfonyl-phenoxy)-pyrazolo[3,4-d]pyrimidin-1-yl]-piperidine-1-carboxylic acid isopropyl ester] showed an EC50 of 0.26 µM. `CS(=O)(=O)c1ccc(Oc2ncnc3c2cnn3C2CCN(C(=O)c3cc(Cl)cc(Cl)c3)CC2)cc1` [Example 150, (3,5-Dichloro-phenyl)-{4-[4-(4-methanesulfonyl-phenoxy)-pyrazolo[3,4-d]pyrimidin-1-yl]-piperidin-1-yl}-methanone] showed an EC50 of 2.1 µM. Molecule `Cc1cc(C(=O)N2CCC(n3ncc4c(Oc5ccc(S(C)(=O)=O)cc5)ncnc43)CC2)nn1C` [Example 152, (1,5-Dimethyl-1H-pyrazol-3-yl)-{4-[4-(4-methanesulfonyl-phenoxy)-pyrazolo[3,4-d]pyrimidin-1-yl]-piperidin-1-yl}-methanone] has an EC50 of 0.39 µM. For `Cc1cc(C(=O)N2CCC(n3ncc4c(Oc5ccc(S(C)(=O)=O)cc5)ncnc43)CC2)no1` [Example 153, {4-[4-(4-Methanesulfonyl-phenoxy)-pyrazolo[3,4-d]pyrimidin-1-yl]-piperidin-1-yl}-(5-methyl-isoxazol-3-yl)-methanone], the EC50 was 4.4 µM. `CC(C)Cc1cc(C(=O)N2CCC(n3ncc4c(Oc5ccc(S(C)(=O)=O)cc5)ncnc43)CC2)no1` [Example 154, (5-Isobutyl-isoxazol-3-yl)-{4-[4-(4-methanesulfonyl-phenoxy)-pyrazolo[3,4-d]pyrimidin-1-yl]-piperidin-1-yl}-methanone] showed an EC50 of 0.36 µM. For `CS(=O)(=O)c1ccc(Oc2ncnc3c2cnn3C2CCN(C(=O)c3cccs3)CC2)cc1` [Example 155, {4-[4-(4-Methanesulfonyl-phenoxy)-pyrazolo[3,4-d]pyrimidin-1-yl]-piperidin-1-yl}-thiophen-2-yl-methanone], the EC50 was 1.6 µM. Work on `CS(=O)(=O)c1ccc(Oc2ncnc3c2cnn3C2CCN(C(=O)c3nc4ccccc4s3)CC2)cc1` [Example 156, Benzothiazol-2-yl-{4-[4-(4-methanesulfonyl-phenoxy)-pyrazolo[3,4-d]pyrimidin-1-yl]-piperidin-1-yl}-methanone] yielded an EC50 of 0.16 µM. `CS(=O)(=O)c1ccc(Oc2ncnc3c2cnn3C2CCN(Cc3ccccc3)CC2)cc1` [Example 157, 1-(1-Benzyl-piperidin-4-yl)-4-(4-methanesulfonyl-phenoxy)-1H-pyrazolo[3,4-d]pyrimidine] gave an EC50 of 0.58 µM. `CS(=O)(=O)c1ccc(Oc2ncnc3c2cnn3C2CCN(Cc3cccc(Cl)c3)CC2)cc1` [Example 158, 1-[1-(3-Chloro-benzyl)-piperidin-4-yl]-4-(4-methanesulfonyl-phenoxy)-1H-pyrazolo[3,4-d]pyrimidine] was tested, and the EC50 was 0.28 µM. `CS(=O)(=O)c1ccc(Oc2ncnc3c2cnn3C2CCN(Cc3ccc(F)cc3)CC2)cc1` [Example 159, 1-[1-(4-Fluoro-benzyl)-piperidin-4-yl]-4-(4-methanesulfonyl-phenoxy)-1H-pyrazolo[3,4-d]pyrimidine] showed an EC50 of 0.2 µM. `CS(=O)(=O)c1ccc(Oc2ncnc3c2cnn3C2CCN(Cc3ccc(Cl)cc3)CC2)cc1` [Example 160, 1-[1-(4-Chloro-benzyl)-piperidin-4-yl]-4-(4-methanesulfonyl-phenoxy)-1H-pyrazolo[3,4-d]pyrimidine] was tested, and the EC50 was 0.57 µM. `CS(=O)(=O)c1ccc(Oc2ncnc3c2cnn3C2CCN(Cc3ccc(C(F)(F)F)cc3)CC2)cc1` [Example 161, 4-(4-Methanesulfonyl-phenoxy)-1-[1-(4-trifluoromethyl-benzyl)-piperidin-4-yl]-1H-pyrazolo[3,4-d]pyrimidine] showed an EC50 of 0.036 µM. `CS(=O)(=O)c1ccc(Oc2ncnc3c2cnn3C2CCN(Cc3cccc(OC(F)(F)F)c3)CC2)cc1` [Example 162, 4-(4-Methanesulfonyl-phenoxy)-1-[1-(3-trifluoromethoxy-benzyl)-piperidin-4-yl]-1H-pyrazolo[3,4-d]pyrimidine] gave an EC50 of 0.12 µM. With `CS(=O)(=O)c1ccc(Oc2ncnc3c2cnn3C2CCN(Cc3ccc4c(c3)OC(F)(F)O4)CC2)cc1` [Example 163, 1-[1-(2,2-Difluoro-benzo[1,3]dioxol-5-ylmethyl)-piperidin-4-yl]-4-(4-methanesulfonyl-phenoxy)-1H-pyrazolo[3,4-d]pyrimidine] the EC50 was 0.14 µM. Work on `CS(=O)(=O)c1ccc(Oc2ncnc3c2cnn3C2CCN(Cc3ccccc3O)CC2)cc1` [Example 164, 2-{4-[4-(4-Methanesulfonyl-phenoxy)-pyrazolo[3,4-d]pyrimidin-1-yl]-piperidin-1-ylmethyl}-phenol] yielded an EC50 of 0.36 µM. In the case of `COc1ccccc1CN1CCC(n2ncc3c(Oc4ccc(S(C)(=O)=O)cc4)ncnc32)CC1` [Example 165, 4-(4-Methanesulfonyl-phenoxy)-1-[1-(2-methoxy-benzyl)-piperidin-4-yl]-1H-pyrazolo[3,4-d]pyrimidine], the EC50 was 1.4 µM. With `CS(=O)(=O)c1ccc(Oc2ncnc3c2cnn3C2CCN(Cc3cccc(C#N)c3)CC2)cc1` [Example 168, 3-{4-[4-(4-Methanesulfonyl-phenoxy)-pyrazolo[3,4-d]pyrimidin-1-yl]-piperidin-1-ylmethyl}-benzonitrile] the EC50 was 1.5 µM. For `CS(=O)(=O)c1ccc(Oc2ncnc3c2cnn3C2CCN(Cc3nccs3)CC2)cc1` [Example 169, 4-(4-Methanesulfonyl-phenoxy)-(1-thiazol-2-ylmethyl-piperidin-4-yl)-1H-pyrazolo[3,4-d]pyrimidine], the EC50 was 3.6 µM. With `CC(C)CS(=O)(=O)N1CCC(n2ncc3c(Oc4ccc(S(C)(=O)=O)cc4)ncnc32)CC1` [Example 171, 4-(4-Methanesulfonyl-phenoxy)-1-[1-(2-methyl-propane-1-sulfonyl)-piperidin-4-yl]-1H-pyrazolo[3,4-d]pyrimidine] the EC50 was 0.4 µM. With `CC(C)(C)OC(=O)N1CCC(n2ncc3c(Oc4ccc(S(C)(=O)=O)cc4)nc(Cl)nc32)CC1` [Example 172, 4-[6-Chloro-4-(4-methanesulfonyl-phenoxy)-pyrazolo[3,4-d]pyrimidin-1-yl]-piperidine-1-carboxylic acid tert-butyl ester] the EC50 was 0.024 µM. For `CC(C)(C)OC(=O)N1CCC(n2ncc3c(Oc4ccccc4C#N)nc(N)nc32)CC1` [Example 174, 4-[6-Amino-4-(2-cyano-phenoxy)-pyrazolo[3,4-d]pyrimidin-1-yl]-piperidine-1-carboxylic acid tert-butyl ester], the EC50 was 3.4 µM. Molecule `Cc1nc(Oc2ccc(S(C)(=O)=O)cc2)c2cnn(C3CCN(C(=O)OC(C)(C)C)CC3)c2n1` [Example 175, 4-[4-(4-Methanesulfonyl-phenoxy)-6-methyl-pyrazolo[3,4-d]pyrimidin-1-yl]-piperidine-1-carboxylic acid tert-butyl ester] has an EC50 of 0.028 µM.

Each molecule was assayed on C57B1/6J mice (assay: oral glucose tolerance test (OGTT) in C57B1/6J mice). Settings: 30 mg/kg oral gavage, 2 g/kg glucose bolus two hours after dosing; vs vehicle treated mice.
Type: in vivo
Procedure: The in vivo activity of selected compounds of the invention was characterized using an oral glucose tolerance test in C57B1/6J mice.
C57B1/6J mice were obtained from Jackson Laboratory (Bar Harbor, Me.) and were maintained in a light-dark cycle with lights on from 0600-1800 hr. The mice were received at age nine weeks and given ad libitum access to diet (LabDiet 5001 chow, PMI Nutrition, Brentwood, Mo.), and were at age 10 weeks at the time of study The experiments were conducted during the light phase of the light-dark cycle. Mice (n=10) were weighed and fasted for a four hour period prior to treatment with GPR119 agonists or formulation vehicle via oral gavage. GPR119 agonists were formulated in Klucel vehicle (2% Klucel LF with 0.1% Tween 80, in water) at a concentration of 4.0 mg/mL and the mice were dosed with a 7.5 mL/kg volume to equal a 30 mg/kg dose. Two hours following dosing, the animals were given an oral glucose tolerance test (OGTT). For the OGTT, the animals were given a 2 g/kg glucose bolus via oral gavage. Blood glucose readings were made immediately prior to the glucose challenge, and 30, 60 and 120 minutes following. […] Area under the curve (AUC) for plots of blood glucose vs. time for the individual mice was calculated by the trapezoidal method. […]
With `CC(C)OC(=O)N1CCC(n2ncc3c(Oc4ccc(S(C)(=O)=O)cc4)ncnc32)CC1` [Example 21, 4-[4-(4-Methanesulfonyl-phenoxy)-pyrazolo[3,4-d]pyrimidin-1-yl]-piperidine-1-carboxylic acid isopropyl ester] the “decrease in mean baseline-subtracted AUC (blood glucose vs. time)” value was 44%.
